Laboratory results as given in patent publication US12336536B2, “Method for controlling herbicide resistant or tolerant weeds” (BASF Agro B.V., priority 2015, dated 2025).

Key:
MATIN = assay: Greenhouse test, solo and combination, post-emergence, 20 DAT; type: in vivo, Matricaria inodora
Method: The test plants have been seeded, separately for each species, in plastic containers in sandy loamy soil containing 5% of organic matter.
For the post-emergence treatment, the plants were first grown to the 2 leaf station (GS 12) and applied at GS 12-19 depending on the species. The herbicidal compositions were suspended or emulsified in water as distribution medium and sprayed using finely distributing nozzles.
The plants have been cultivated due to their individual requirements at 10-25° C. and 20-35° C. The plants were irrigated due to their necessity.
The racemic mixture (±)-2-exo-(2-Methylbenzyloxy)-1-methyl-4-isopropyl-7-oxabicyclo[2.2.1]heptane was used as herbicide A and formulated as emulsifiable concentrate having an active ingredient concentration of 750 g/l.
Cyhalofop-butyl (herbicide B.5) was used as an emulsifiable concentrate (EC) formulation having an active ingredient concentration of 200 g/l.
Metsulfuron-methyl (herbicide B.53) was used as a water soluble granule (SG) formulation having an active ingredient concentration of 20%.
Bispyribac-sodium (herbicide B.23) was used as a soluble concentrate (SL) formulation having an active ingredient concentration of 408 g/l.
Quizalofop-P-ethyl (herbicide B.217) was used as a suspension concentrate (SC) formulation having an active ingredient concentration of 106 g/l.
In the following experiments, the herbicidal activity for the individual herbicide compounds (solo and mixture applications) was assessed 20 days after treatment (DAT).
The evaluation for the damage on undesired weeds caused by the chemical compositions was carried out using a scale from 0 to 100%, compared to the untreated control plants. Here, 0 means no damage and 100 means complete destruction of the plants.
The plants used in the greenhouse experiments belonged to the following species:
E=X+Y−(X·Y/100) • where X=effect in percent using herbicide A at an application rate a; • Y=effect in percent using herbicide B at application rate b; • E=expected effect (in %) of herbicide A+herbicide B at application rates a+b.
The value E corresponds to the effect (plant damage or injury) which is to be expected if the activity of the individual compounds is additive. If the observed effect is higher than the value E calculated according to the Colby equation, a synergistic effect is present.
Tables 3 to 6 below relate the herbicidal activity, in greenhouse trials, of the individual actives and the combination applied at different rates and ratios, in post-emergence application at 20 days after treatment (DAT).

[1] = test system: blackgrass (ALOMY) biotypes; assay: Greenhouse test, control of resistant weed biotypes, post-emergence, blackgrass; type: in vivo, Alopecurus myosuroides; settings: for Herbicidal activity: post-emergence, scale 0 to 100
Method: The herbicidal activity of herbicide A on resistant weed biotypes was tested in comparison with certain commercial herbicides by the following greenhouse experiments:
The culture containers used were plastic flowerpots containing loamy sand with approximately 3.0% of humus as the substrate. The seeds of the test plants were sown separately for each species. Six blackgrass (ALOMY) (10-103, 10-170, 09-591, 10-123, 11-215, 11-146) and six ryeg rass (LOLMU) (12-166, 12-143, 12-165, 12-307, 13-304, 13-313) biotypes with varying degrees of resistance towards a range of modes of action according to the HRAC (Herbicide Resistance Action Committee) classification on mode of action 2010 (see e.g http://www.hracglobal.com/pages/classificationofherbicidesiteofaction.aspx) were tested alongside two non-resistant biotypes (14-116 and 13-243), see Tables 1 and 2 below.
For the post-emergence treatment, the test plants were first grown to a height of 3 to 15 cm, depending on the plant habit, and only then treated with the active ingredients which had been suspended or emulsified in water. For this purpose, the test plants were either sown directly and grown in the same containers, or they were first grown separately as seedlings and transplanted into the test containers a few days prior to treatment.
Depending on the species, the plants were kept at 10-25° C. or 20-35° C. The test period extended over 2 to 4 weeks. During this time, the plants were tended, and their response to the individual treatments was evaluated.
The racemic mixture (±)-2-exo-(2-Methylbenzyloxy)-1-methyl-4-isopropyl-7-oxabicyclo[2.2.1]heptane was used as herbicide A and formulated as emulsifiable concentrates with an active ingredient concentration of 50 g/l, 100 g/l or 750 g/l respectively.
Flufenacet was used as a commercial concentrated solution formulation having an active ingredient concentration of 500 g/l (Cadou).
Imazamox was used as a water dispersible granule (70% WG).
Evaluation of the herbicidal activity was carried out using a scale from 0 to 100. 100 means complete destruction of at least the aerial moieties, and 0 means no damage, or normal course of growth. A good herbicidal activity is given at values of at least 70 and a very good herbicidal activity is given at values of at least 85.

**Q.** For “(±)-2-exo-(2-Methylbenzyloxy)-1-methyl-4-isopropyl-7-oxabicyclo[2.2.1]heptane [Herbicide A]”, which Herbicidal activity (MATIN; solo application 62.5 g ai/ha) is on record?
**A.** 0%

**Q.** And the Herbicidal activity (MATIN; solo application 125 g ai/ha)?
**A.** 0%

**Q.** What about the Herbicidal activity (MATIN; solo application 250 g ai/ha) of the same substance?
**A.** 0%

**Q.** What about the Herbicidal activity (MATIN; solo application 500 g ai/ha) of the same substance?
**A.** 25%

**Q.** What about the Herbicidal activity ([1]; BT 09-591, resistant HRAC group A, B, K, 125 g ai/ha) of the same substance?
**A.** 80

**Q.** And the Herbicidal activity ([1]; BT 09-591, resistant HRAC group A, B, K, 250 g ai/ha)?
**A.** 95

**Q.** What about the Herbicidal activity ([1]; BT 10-103, resistant HRAC group A, B, K, 125 g ai/ha) of the same substance?
**A.** 80

**Q.** What about the Herbicidal activity ([1]; BT 10-103, resistant HRAC group A, B, K, 250 g ai/ha) of the same substance?
**A.** 95

**Q.** And the Herbicidal activity ([1]; BT 10-123, resistant HRAC group A, B, C, 125 g ai/ha)?
**A.** 85

**Q.** And the Herbicidal activity ([1]; BT 10-123, resistant HRAC group A, B, C, 250 g ai/ha)?
**A.** 90

**Q.** What about the Herbicidal activity ([1]; BT 10-170, resistant HRAC group A, B, K, 125 g ai/ha) of the same substance?
**A.** 85

**Q.** What about the Herbicidal activity ([1]; BT 10-170, resistant HRAC group A, B, K, 250 g ai/ha) of the same substance?
**A.** 90

**Q.** And the Herbicidal activity ([1]; BT 11-146, resistant HRAC group K, 125 g ai/ha)?
**A.** 90

**Q.** What about the Herbicidal activity ([1]; BT 11-146, resistant HRAC group K, 250 g ai/ha) of the same substance?
**A.** 95

**Q.** And the Herbicidal activity ([1]; BT 11-215, resistant HRAC group A, B, C, E, K, 125 g ai/ha)?
**A.** 80

**Q.** And the Herbicidal activity ([1]; BT 11-215, resistant HRAC group A, B, C, E, K, 250 g ai/ha)?
**A.** 95

**Q.** What about the Herbicidal activity ([1]; BT 14-116, Sensitive standard, 125 g ai/ha) of the same substance?
**A.** 65

**Q.** And the Herbicidal activity ([1]; BT 14-116, Sensitive standard, 250 g ai/ha)?
**A.** 100

**Q.** What about the “herbicidal activity (summary in words)” value ([1]; post-emergence treatment, various biotypes of blackgrass (ALOMY) with varying degrees of resistance) of the same substance?
**A.** very good herbicidal activity (a very good herbicidal activity is given at values of at least 85)
